28 compounds from patent publication US20100105655A1, “NOVEL COMPOUNDS 515” (ASTRAZENECA AB, priority 2008, published 2010) can be followed below.

pIC50: −log10 of the molar value.

One series addresses T1, IGFR kinase (Homo sapiens, UniProt P08069).
T1 construct: purchased Millipore
The series can be described thus: Enzyme assay (c), IGFR kinase, Caliper LabChip. The series is classed as biochemical. The following applies: 30 nM IGFR kinase, 6 uM ATP, 3 uM peptide mix; read-out: IGFR IC50.

By pIC50 is commonly meant the IC50 on a negative log10 scale, so that one unit is a factor of ten.

T1 sequence (P08069 31-1367): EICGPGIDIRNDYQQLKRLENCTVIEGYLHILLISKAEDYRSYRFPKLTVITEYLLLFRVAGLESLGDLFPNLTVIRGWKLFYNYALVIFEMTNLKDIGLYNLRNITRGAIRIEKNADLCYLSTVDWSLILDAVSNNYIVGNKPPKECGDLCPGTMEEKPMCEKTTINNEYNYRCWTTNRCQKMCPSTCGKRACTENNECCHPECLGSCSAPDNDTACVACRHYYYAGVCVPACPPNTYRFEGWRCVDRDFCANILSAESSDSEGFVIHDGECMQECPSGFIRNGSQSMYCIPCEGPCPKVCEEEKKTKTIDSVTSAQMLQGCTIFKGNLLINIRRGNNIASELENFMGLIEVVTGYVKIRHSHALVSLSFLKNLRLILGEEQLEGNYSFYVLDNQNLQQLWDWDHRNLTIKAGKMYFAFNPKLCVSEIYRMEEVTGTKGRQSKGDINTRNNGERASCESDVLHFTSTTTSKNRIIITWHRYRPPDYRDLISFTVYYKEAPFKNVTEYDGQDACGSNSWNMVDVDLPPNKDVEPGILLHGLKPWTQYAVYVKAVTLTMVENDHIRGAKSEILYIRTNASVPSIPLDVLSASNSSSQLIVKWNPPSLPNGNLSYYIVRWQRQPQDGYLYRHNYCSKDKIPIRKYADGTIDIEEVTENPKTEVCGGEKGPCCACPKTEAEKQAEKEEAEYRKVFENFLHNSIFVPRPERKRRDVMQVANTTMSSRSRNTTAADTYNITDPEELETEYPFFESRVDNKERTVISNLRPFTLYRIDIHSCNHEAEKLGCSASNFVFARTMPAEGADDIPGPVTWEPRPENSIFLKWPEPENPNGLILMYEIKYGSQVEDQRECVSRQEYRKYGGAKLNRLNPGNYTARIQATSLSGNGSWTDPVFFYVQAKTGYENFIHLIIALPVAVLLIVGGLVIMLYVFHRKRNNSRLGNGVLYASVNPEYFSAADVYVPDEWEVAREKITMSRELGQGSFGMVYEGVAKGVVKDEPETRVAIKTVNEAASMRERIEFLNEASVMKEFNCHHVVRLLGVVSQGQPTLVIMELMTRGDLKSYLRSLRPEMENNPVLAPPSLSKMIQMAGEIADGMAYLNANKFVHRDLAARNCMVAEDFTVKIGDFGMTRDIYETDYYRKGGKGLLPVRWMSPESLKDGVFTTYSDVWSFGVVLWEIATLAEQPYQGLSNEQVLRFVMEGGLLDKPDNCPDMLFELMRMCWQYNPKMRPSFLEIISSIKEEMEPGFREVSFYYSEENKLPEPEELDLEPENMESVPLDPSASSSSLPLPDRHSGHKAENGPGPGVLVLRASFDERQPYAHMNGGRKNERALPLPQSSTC

Regarding `COc1cc(N2CCN(CCO)CC2)ccc1Nc1ncc(F)c(-c2cnc3ccccn23)n1` [Example 81, 2-[4-[4-[(5-fluoro-4-imidazo[1,2-a]pyridin-3-yl-pyrimidin-2-yl)amino]-3-methoxy-phenyl]piperazin-1-yl]ethanol], the melting point was ~ 171.3 °C. For the same compound, the pIC50 at IGFR kinase is 7.52.
As to `COc1cc(C2CCN(C(C)=O)CC2)ccc1Nc1ncc(F)c(-c2cnc3ccccn23)n1` [Example 78, 1-[4-[4-[(5-fluoro-4-imidazo[1,2-a]pyridin-3-yl-pyrimidin-2-yl)amino]-3-methoxy-phenyl]-1-piperidyl]ethanone], the negative logarithm of the IC50 (pIC50) at IGFR kinase is 7.27.
As to `COc1cc(N2CC[C@H](N(C)C)C2)ccc1Nc1ncc(Cl)c(-c2cnc3ccccn23)n1` [Example 3.16, 5-chloro-N-[4-[(3S)-3-dimethylaminopyrrolidin-1-yl]-2-methoxy-phenyl]-4-imidazo[1,2-a]pyridin-3-yl-pyrimidin-2-amine], the pIC50 at IGFR kinase was 7.37.
Take `CCc1ccn2c(-c3nc(Nc4ccc(N5CCN(C(C)=O)CC5)cc4OC)ncc3Cl)cnc2c1` [Example 126.8, 1-[4-[4-[[5-chloro-4-(7-ethylimidazo[1,2-a]pyridin-3-yl)pyrimidin-2-yl]amino]-3-methoxyphenyl]piperazin-1-yl]ethanone]: the pIC50 on IGFR kinase is 7.68.
Still for that read-out and setting: the value for `COc1cc(N2CCN(C(C)(C)CO)CC2)ccc1Nc1ncc(F)c(-c2cnc3ccc(F)cn23)n1` [Example 261, 2-[4-[4-[[5-fluoro-4-(6-fluoroimidazo[1,2-a]pyridin-3-yl)pyrimidin-2-yl]amino]-3-methoxy-phenyl]piperazin-1-yl]-2-methyl-propan-1-ol] was 7.64; that for `COc1cc(OC2CN(C(=O)C3(O)CC3)C2)ccc1Nc1ncc(Cl)c(-c2cnc3ccccn23)n1` [Example 27.5, [3-[4-[(5-chloro-4-imidazo[1,2-a]pyridin-3-yl-pyrimidin-2-yl)amino]-3-methoxy-phenoxy]azetidin-1-yl]-(1-hydroxycyclopropyl)methanone] was 7.64; that for `COc1cc(N2CCN(C(=O)[C@H](C)OC)CC2)ccc1Nc1ncc(Cl)c(-c2cnc3ccccn23)n1` [Example 25.3, (2S)-1-[4-[4-[(5-chloro-4-imidazo[1,2-a]pyridin-3-yl-pyrimidin-2-yl)amino]-3-methoxy-phenyl]piperazin-1-yl]-2-methoxy-propan-1-one] was 7.85.
As for `COc1ccc(N2CCC(OC)CC2)cc1Nc1ncc(F)c(-c2cnc3ccccn23)n1` [Example 77, 5-fluoro-4-imidazo[1,2-a]pyridin-3-yl-N-[2-methoxy-5-(4-methoxy-1-piperidyl)phenyl]pyrimidin-2-amine], on IGFR kinase, the negative logarithm of the IC50 (pIC50) is 6.74.
For `COc1cc(O[C@@H]2CCNC2)ccc1Nc1ncc(Cl)c(-c2cnc3ccccn23)n1` [Example 6.5, 5-chloro-4-imidazo[1,2-a]pyridin-3-yl-N-[2-methoxy-4-[(3R)-pyrrolidin-3-yl]oxy-phenyl]pyrimidin-2-amine], the pIC50 on IGFR kinase is 7.96.
Regarding `COc1cc(OC2CCN(C(C)=O)CC2)ccc1Nc1ncc(C(F)(F)F)c(-c2cnc3ccccn23)n1` [Example 110, 1-[4-[4-[[4-imidazo[1,2-a]pyridin-3-yl-5-(trifluoromethyl)pyrimidin-2-yl]amino]-3-methoxy-phenoxy]-1-piperidyl]ethanone], the pIC50 at IGFR kinase was 7.44.
For `COc1cc(N2CCN(CCO)[C@@H](C)C2)ccc1Nc1ncc(F)c(-c2cnc3ccccn23)n1` [Example 273, 2-[(2S)-4-[4-[(5-fluoro-4-imidazo[1,2-a]pyridin-3-yl-pyrimidin-2-yl)amino]-3-methoxy-phenyl]-2-methyl-piperazin-1-yl]ethanol], at IGFR kinase, the pIC50 was 6.68.
Turning to `COc1cc(CN2CCN(CCO)CC2)ccc1Nc1ncc(Cl)c(-c2cnc3ccccn23)n1` [Example 21.8, 2-[4-[[4-[(5-chloro-4-imidazo[1,2-a]pyridin-3-yl-pyrimidin-2-yl)amino]-3-methoxy-phenyl]methyl]piperazin-1-yl]ethanol], at IGFR kinase, the negative logarithm of the IC50 (pIC50) is 7.70.
`COc1cc(N2CCNCC2)ccc1Nc1ncc(Cl)c(-c2cnc3ccc(C#N)cn23)n1` [Example 266, 3-[5-chloro-2-(2-methoxy-4-piperazin-1-yl-anilino)pyrimidin-4-yl]imidazo[1,2-a]pyridine-6-carbonitrile]: the negative logarithm of the IC50 (pIC50) at IGFR kinase is 7.54.
As to `COc1cc(N2CCN(CCO)CC2)ccc1Nc1ncc(C(F)(F)F)c(-c2cnc3ccccn23)n1` [Example 109, 2-[4-[4-[[4-imidazo[1,2-a]pyridin-3-yl-5-(trifluoromethyl)pyrimidin-2-yl]amino]-3-methoxy-phenyl]piperazin-1-yl]ethanol], the pIC50 at IGFR kinase was 7.80.
Turning to `COc1cc(N2CCOCC2)ccc1Nc1ncc(C)c(-c2cnc3ccccn23)n1` [Example 100, 4-imidazo[1,2-a]pyridin-3-yl-N-(2-methoxy-4-morpholino-phenyl)-5-methyl-pyrimidin-2-amine], the pIC50 on IGFR kinase was 7.24.
The same measure, in the same setting: then `COc1cc(N2CCN(CC(C)(C)O)CC2)ccc1Nc1ncc(F)c(-c2cnc3ccccn23)n1` [Example 91, 1-[4-[4-[(5-fluoro-4-imidazo[1,2-a]pyridin-3-yl-pyrimidin-2-yl)amino]-3-methoxy-phenyl]piperazin-1-yl]-2-methyl-propan-2-ol], with 7.46.
Consider `CCN1CCN(c2ccc(Nc3ncc(F)c(-c4cnc5ccccn45)n3)c(OC)c2)CC1` [Example 120, N-[4-(4-ethylpiperazin-1-yl)-2-methoxyphenyl]-5-fluoro-4-imidazo[1,2-a]pyridin-3-ylpyrimidin-2-amine], for which, on IGFR kinase, the pIC50 was 6.89.
Regarding `COc1cc(N2CCN(C(C)=O)CC2)ccc1Nc1ncc(OC)c(-c2cnc3ccccn23)n1` [Example 92, 1-[4-[4-[(4-imidazo[1,2-a]pyridin-3-yl-5-methoxy-pyrimidin-2-yl)amino]-3-methoxy-phenyl]piperazin-1-yl]ethanone], the pIC50 at IGFR kinase is 7.05.
For `COc1ccc(N2CC[C@@H](N(C)C)C2)cc1Nc1ncc(Cl)c(-c2cnc3ccccn23)n1` [Example 3.13, 5-chloro-N-[5-[(3R)-3-dimethylaminopyrrolidin-1-yl]-2-methoxy-phenyl]-4-imidazo[1,2-a]pyridin-3-yl-pyrimidin-2-amine], on IGFR kinase, the pIC50 is 7.22.
`COc1cc(N2CC3CN(CCS(C)(=O)=O)CC(C2)O3)ccc1Nc1ncc(Cl)c(-c2cnc3c(F)cccn23)n1` [Example 207, 5-chloro-4-(8-fluoroimidazo[1,2-a]pyridin-3-yl)-N-[2-methoxy-4-[3-(2-methylsulfonylethyl)-9-oxa-3,7-diazabicyclo[3.3.1]nonan-7-yl]phenyl]pyrimidin-2-amine]: the negative logarithm of the IC50 (pIC50) at IGFR kinase was 7.72.
As for `COc1cc(CN[C@H](C)CO)ccc1Nc1ncc(Cl)c(-c2cnc3ccccn23)n1` [Example 21.15, (2R)-2-[[4-[(5-chloro-4-imidazo[1,2-a]pyridin-3-yl-pyrimidin-2-yl)amino]-3-methoxy-phenyl]methylamino]propan-1-ol], the negative-log IC50 (pIC50) at IGFR kinase was 7.59.
On to `COc1cc(N2CC[C@@H](NC(C)=O)C2)ccc1Nc1ncc(Cl)c(-c2cnc3ccccn23)n1` [Example 3.23, N-((3R)-1-(4-(5-chloro-4-(imidazo[1,2-a]pyridin-3-yl)pyrimidin-2-ylamino)-3-methoxyphenyl)pyrrolidin-3-yl)acetamide], for which, at IGFR kinase, the pIC50 was 7.74.
As to `COc1cc(N2CCCC2)ccc1Nc1ncc(Cl)c(-c2cnc3ccccn23)n1` [Example 3.44, 5-chloro-4-imidazo[1,2-a]pyridin-3-yl-N-(2-methoxy-4-pyrrolidin-1-yl-phenyl)pyrimidin-2-amine], the pIC50 on IGFR kinase is 9.52.
On to `COc1cc(C2CN(C(C)=O)C2)ccc1Nc1ncc(Cl)c(-c2cnc3ccccn23)n1` [Example 277, 1-[3-[4-[(5-chloro-4-imidazo[1,2-a]pyridin-3-yl-pyrimidin-2-yl)amino]-3-methoxy-phenyl]azetidin-1-yl]ethanone], for which the pIC50 at IGFR kinase is 7.80.
Still for that read-out and setting: then `COc1cc(N2CCS(=O)(=O)CC2)ccc1Nc1ncc(Cl)c(-c2cnc3ccccn23)n1` [Example 3.15, 5-chloro-N-[4-(1,1-dioxo-1,4-thiazinan-4-yl)-2-methoxy-phenyl]-4-imidazo[1,2-a]pyridin-3-yl-pyrimidin-2-amine], with 7.22.
For `COCCCNCc1ccc(Nc2ncc(Cl)c(-c3cnc4ccccn34)n2)c(OC)c1` [Example 21.9, 5-chloro-4-imidazo[1,2-a]pyridin-3-yl-N-[2-methoxy-4-[(3-methoxypropylamino)methyl]phenyl]pyrimidin-2-amine], at IGFR kinase, the negative logarithm of the IC50 (pIC50) was 7.77.
For `COc1cc(OC2CN(C(=O)N(C)CCO)C2)ccc1Nc1ncc(Cl)c(-c2cnc3ccccn23)n1` [Example 68, 3-[4-[(5-chloro-4-imidazo[1,2-a]pyridin-3-yl-pyrimidin-2-yl)amino]-3-methoxy-phenoxy]-N-(2-hydroxyethyl)-N-methyl-azetidine-1-carboxamide], at IGFR kinase, the pIC50 was 7.62.
Regarding `CNC(=O)CN(C)c1ccc(Nc2ncc(Cl)c(-c3cnc4c(F)cccn34)n2)c(OC)c1` [Example 226, 2-[4-[[5-chloro-4-(8-fluoroimidazo[1,2-a]pyridin-3-yl)pyrimidin-2-yl]amino]-3-methoxy-N-methyl-anilino]-N-methyl-acetamide], on IGFR kinase, the pIC50 was 7.48.
